Experimental data published in patent US20250388597A1, “BIFUNCTIONAL PHOTOCROSSLINKING PROBES FOR COVALENT CAPTURE OF PROTEIN-NUCLEIC ACID COMPLEXES IN CELLS” (UNIVERSITY OF SOUTHERN CALIFORNIA, priority 2022, published 2025).
Entries after “also recorded” stand apart in the source; their conditions may differ.

Biological target: T1, NFAT1/DNA complex (Homo sapiens, UniProt Q13469)
T1 construct: human NFAT1 protein (residue 399-676, NFAT1-DBD)
T1 sequence (Q13469 399-676): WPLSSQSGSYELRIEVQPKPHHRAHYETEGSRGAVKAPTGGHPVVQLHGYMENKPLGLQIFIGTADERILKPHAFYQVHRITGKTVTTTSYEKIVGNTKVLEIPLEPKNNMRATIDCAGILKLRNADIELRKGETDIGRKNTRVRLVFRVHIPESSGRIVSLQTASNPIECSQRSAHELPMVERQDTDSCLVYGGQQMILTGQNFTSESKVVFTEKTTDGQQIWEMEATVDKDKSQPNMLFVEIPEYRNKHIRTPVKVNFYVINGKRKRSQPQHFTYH
Assay: Identification of covalent attachment site on crosslinked NFAT1 (trypsin digestion, Edman sequencing)
Details: for peptide identified by Edman sequencing of the DNA-peptide conjugate: trypsin digested crosslinked NFAT1/DNA complex
Protocol: FIG. 9A-FIG. 9D depicts characterization of BFPX-mediated crosslinking reaction, to identify the covalent attachment site on the protein. (FIG. 9A) A large scale of crosslinking reaction corresponding to lane 11 of FIG. 7 was carried out. The reaction mixture was separated on FPLC using a mono-Q column (yellow trace: conductance, red trace: salt gradient (A:10 mM Hepes pH 7.4; B: 10 mM Hepes 7.4, IM NaCl), blue trace: UV254 nm absorbance). […] The flow-through contains only free NFAT (lane 4), peak I contains predominantly the complex (lane 5) and peak II contains predominantly free DNA (lane 6). (FIG. 9C) The purified NFAT/DNA complex was digested with trypsin and the DNA-peptide conjugate was purified and sequenced by Edman degradation: Top panel, a schematic picture of the DNA binding domain of human NFAT1 (residue 399-676) used in the study, the sequence of loop 478-491, RITGKTVTTTSYEK (SEQ ID NO.: 1), is shown above; Middle panel: a schematic picture of the covalently capture NFAT/DNA complex, the DNA sequence (5′-[…]-3′ (SEQ ID NO: 2) and its complementary strand 3′-[…]-5′ (SEQ ID NO: 3)) used in the study is shown with the two potential probe (yellow wedge and start) binding site (TpA) indicated). The underlined region is the NFAT binding motif. Bottom panel: Edman sequencing results ([…], T480, and G481) identify the loop of 478-491, RITGKTVTTTSYEK (SEQ ID NO: 1), as the attachment site. […]
FIG. 13A depicts characterization of the BFPX-mediated crosslinking reaction: Identification of covalent attachment sites on the crosslinked proteins. […] The reaction mixtures were separated on FPLC using a mono-Q column (yellow trace: conductance, red trace: salt gradient (buffer A:10 mM Hepes pH 7.4; buffer B: 10 mM Hepes 7.4, 1 M NaCl), blue trace: UV254 nm absorbance). […]
We analyzed the covalent attachment sites on the NFAT/DNA complexes crosslinked by SPB-AAD and SPB-PEG4-AAD using a work flow shown in FIG. 13A. […] The sequencing results were generally noisy with multiple amino acids detected in each cycle. […]

peptide identified by Edman sequencing of the DNA-peptide conjugate	SMILES	covalent attachment site on NFAT1 (human NFAT1 DBD residue 399-676)
APTGGH	C#CCCC1(CCNC(=O)CCOCCOCCOCCOCCNC(=O)CCCOc2c3occc3cc3ccc(=O)oc23)N=N1 [SPB-PEG4-AAD, N-(2-(3-(but-3-yn-1-yl)-3H-diazirin-3-yl)ethyl)-1-(4-((7-oxo-7H-furo[3,2-g]chromen-9-yl)oxy)butanamido)-3,6,9,12-tetraoxapentadecan-15-amide]	residues 434 and 452; also recorded: loop of 434-452
IVGN and Ile, Thr, and Gly	C#CCCC1(CCNC(=O)CCCOc2c3occc3cc3ccc(=O)oc23)N=N1 [SPB-AAD, N-(2-(3-(but-3-yn-1-yl)-3H-diazirin-3-yl)ethyl)-4-((7-oxo-7H-furo[3,2-g]chromen-9-yl)oxy)butanamide]	–
